Source: paper PMC9959589, “Use of a Longer Aglycon Moiety Bearing Sialyl α(2→3) Lactoside on the Glycopolymer for Lectin Evaluation” (Polymers, 2023)

Target: T1, Wheat germ agglutinin (WGA)
T1 construct: gene WGA1; commercial native lectin from wheat germ (J-Oil Mills)
Test: intrinsic tryptophan fluorescence titration, Hill plot
Assay type: binding, Triticum aestivum
Details: 0.65 μM WGA, 50 mM Tris-HCl, 1.25 M NaCl, 25 mM CaCl2, pH 7.5, 4 °C; excitation 295 nm, emission 348 nm (buffer as given for 10b, same procedure); read-out: K a / (×10^5 M^-1) (converted)
From the text: intrinsic tryptophan fluorescence titration, Hill plot on Wheat germ agglutinin (WGA)

- Kd: 31.2 µM
Structure (SMILES): C=CC(=O)NCCOCCOCCOCCOCCOCCOCCOCCOCCO[C@@H]1O[C@H](CO)[C@@H](O[C@@H]2O[C@H](CO)[C@H](O)[C@H](O[C@]3(C(=O)O)C[C@H](O)[C@@H](NC(C)=O)[C@H]([C@H](O)[C@H](O)CO)O3)[C@H]2O)[C@H](O)[C@H]1O [compound 9, 28-Oxo-3,6,9,12,15,18,21,24-octaoxa-27-azatriacont-29-en-1-yl (5-Acetamido-3,5-dideoxy-D̿ -glycero-α-D̿ -galacto-2-nonulopyranosyl)-(2→3)-O-(β-D̿ -galactopyranosyl)-(1→4)-β-D̿ -glucopyranoside]
